The text below walks through data of patent US20230398125A1, “TREATING HEPATITIS” (Albireo AB, priority 2022, published 2023).

Read-outs that look alike come from different tables or passages of the source. Bounds are passed on as bounds.

The target in one assay is T1, Human NTCP (Homo sapiens, UniProt Q14973).
T1 construct: expressed in transfected cells; peptide purchased from Pharmaron
T1 sequence (Q14973 1-349): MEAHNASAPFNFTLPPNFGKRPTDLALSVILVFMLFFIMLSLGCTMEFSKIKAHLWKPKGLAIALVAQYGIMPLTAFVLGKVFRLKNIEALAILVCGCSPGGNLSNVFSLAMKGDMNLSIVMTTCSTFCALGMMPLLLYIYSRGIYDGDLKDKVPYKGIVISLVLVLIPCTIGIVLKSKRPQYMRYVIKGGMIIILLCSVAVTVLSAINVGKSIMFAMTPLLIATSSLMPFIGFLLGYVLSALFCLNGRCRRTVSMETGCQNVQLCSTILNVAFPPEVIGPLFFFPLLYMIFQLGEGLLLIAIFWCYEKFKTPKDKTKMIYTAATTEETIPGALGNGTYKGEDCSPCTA
Kind of assay: 3H-taurocholic acid uptake in human NTCP-overexpressing cells. In kind it is cell-based. To be noted: 3H-taurocholic acid transport. As for the experimental part: 20,000 cells (Human & Mouse NTCP-overexpressing cells) were seeded in 96-well plate in 100 μL MEM-alpha medium supplemented with 10% FBS containing geneticin (1 mg/mL) and incubated at 37° C. in 5% CO2 for 24 hrs. After incubation, media was decanted from the wells and cells were washed two times with 250 μL of basal MEM-alpha medium (FBS-free). After each wash, plates were tapped against a paper towel to ensure maximum removal of residual media. For Human NTCP (hNTCP), incubation mix was prepared by adding test inhibitor dilutions (3-fold serial dilution in DMSO, 10 concentrations) in MEM-alpha (without FBS) containing 0.3 μM ^3H-taurocholic acid and 7.5 μM cold taurocholic acid (maintaining 0.2% final DMSO concentration). […]
The plates were tapped against a paper towel after every wash to ensure maximum removal of blocking buffer. 100 μL of MicroScint-20 was added to the wells and kept overnight at room temperature before reading the plates in MicroBeta2 liquid Scintillation Counter from PerkinElmer under 3H Test for I/L-BAT protocol (set at 120 seconds reading time per well, with normal plate orientation).
Percentage inhibitions were calculated with respect to the assay controls. […]

The test system of assay [1] is HBV (HepG2 AD38 genotype D). Kind of assay: HBV infection of primary human hepatocytes, extracellular HBV DNA by qPCR. The format is cell-based, hepatitis B virus. As to conditions: for EC50: Hepatitis B virus. For orientation: Real-time PCR tracks product formation cycle by cycle.

As to `CCCCC1CN(c2ccccc2)c2cc(SC)c(O/C=C(\F)C(=O)O)cc2S(=O)(=O)N1C` (centres unmarked) [Compound 1, (Z)-3-((3-butyl-2-methyl-7-(methylthio)-1,1-dioxido-5-phenyl-2,3,4,5-tetrahydro-1,2,5-benzothiadiazepin-8-yl)oxy)-2-fluoroacrylic acid], the midpoint of inhibition at Human NTCP, the IC50, lay at 0.53 ± 0.081 nM. The EC50 (as a rule, the concentration needed to bring the measured effect to its halfway point) in assay [1] (HepG2, 18 h, Study #01, compound given 18 h post-infection) was greater than 1 nM; in assay [1] (HepG2, Study #01, #02 and #03 merged, four parameter regression, read-out: EC50 from fitted curve of merged data), 4.9 nM; in assay [1] (HepG2, Study #01, compound given 18 h prior to infection, PHH, HBV DNA, read-out: EC50) it was 4 nM; in assay [1] (HepG2, Study #02, PHH, read-out: EC50), less than 6.3 nM; in assay [1] (HepG2, Study #03, PHH, read-out: EC50), 11 nM. Further, the “antiviral activity/potency when given 18 h post-infection” value in assay [1] (Study #01) is “lost”. Further, the Max inhibition in assay [1] (Study #01, 18 h prior to infection) came to 97%; in assay [1] (Study #02) it was 88%; in assay [1] (Study #03) it was 63%. For the same compound, the inhibition (commonly the drop in the measured response relative to a control, in per cent) at the lowest concentration tested in assay [1] (Study #02, 6.25 nmol/L) is reported as 58%.
